Assay [1] deals with T1, wild-type human cardiac sodium channel, hNav1.5 (Homo sapiens, UniProt Q14524). The experiment in a line: Late INa screening assay (QPatch whole cell patch clamp, HEK293). Type of assay: cell-based. Summed up: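 HEK293 stably expressing hNav1.5 without beta subunits, recorded at 23-25° C. Late current was induced by 10 μM tefluthrin. Cells were depolarized from −120 mV to −20 mV for 250 ms at 0.1 Hz. Compounds were tested at 1 μM in extracellular solution, with baseline taken in 0Na-ECF; output is percent block of late INa.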
T1 sequence (Q14524 whole entry): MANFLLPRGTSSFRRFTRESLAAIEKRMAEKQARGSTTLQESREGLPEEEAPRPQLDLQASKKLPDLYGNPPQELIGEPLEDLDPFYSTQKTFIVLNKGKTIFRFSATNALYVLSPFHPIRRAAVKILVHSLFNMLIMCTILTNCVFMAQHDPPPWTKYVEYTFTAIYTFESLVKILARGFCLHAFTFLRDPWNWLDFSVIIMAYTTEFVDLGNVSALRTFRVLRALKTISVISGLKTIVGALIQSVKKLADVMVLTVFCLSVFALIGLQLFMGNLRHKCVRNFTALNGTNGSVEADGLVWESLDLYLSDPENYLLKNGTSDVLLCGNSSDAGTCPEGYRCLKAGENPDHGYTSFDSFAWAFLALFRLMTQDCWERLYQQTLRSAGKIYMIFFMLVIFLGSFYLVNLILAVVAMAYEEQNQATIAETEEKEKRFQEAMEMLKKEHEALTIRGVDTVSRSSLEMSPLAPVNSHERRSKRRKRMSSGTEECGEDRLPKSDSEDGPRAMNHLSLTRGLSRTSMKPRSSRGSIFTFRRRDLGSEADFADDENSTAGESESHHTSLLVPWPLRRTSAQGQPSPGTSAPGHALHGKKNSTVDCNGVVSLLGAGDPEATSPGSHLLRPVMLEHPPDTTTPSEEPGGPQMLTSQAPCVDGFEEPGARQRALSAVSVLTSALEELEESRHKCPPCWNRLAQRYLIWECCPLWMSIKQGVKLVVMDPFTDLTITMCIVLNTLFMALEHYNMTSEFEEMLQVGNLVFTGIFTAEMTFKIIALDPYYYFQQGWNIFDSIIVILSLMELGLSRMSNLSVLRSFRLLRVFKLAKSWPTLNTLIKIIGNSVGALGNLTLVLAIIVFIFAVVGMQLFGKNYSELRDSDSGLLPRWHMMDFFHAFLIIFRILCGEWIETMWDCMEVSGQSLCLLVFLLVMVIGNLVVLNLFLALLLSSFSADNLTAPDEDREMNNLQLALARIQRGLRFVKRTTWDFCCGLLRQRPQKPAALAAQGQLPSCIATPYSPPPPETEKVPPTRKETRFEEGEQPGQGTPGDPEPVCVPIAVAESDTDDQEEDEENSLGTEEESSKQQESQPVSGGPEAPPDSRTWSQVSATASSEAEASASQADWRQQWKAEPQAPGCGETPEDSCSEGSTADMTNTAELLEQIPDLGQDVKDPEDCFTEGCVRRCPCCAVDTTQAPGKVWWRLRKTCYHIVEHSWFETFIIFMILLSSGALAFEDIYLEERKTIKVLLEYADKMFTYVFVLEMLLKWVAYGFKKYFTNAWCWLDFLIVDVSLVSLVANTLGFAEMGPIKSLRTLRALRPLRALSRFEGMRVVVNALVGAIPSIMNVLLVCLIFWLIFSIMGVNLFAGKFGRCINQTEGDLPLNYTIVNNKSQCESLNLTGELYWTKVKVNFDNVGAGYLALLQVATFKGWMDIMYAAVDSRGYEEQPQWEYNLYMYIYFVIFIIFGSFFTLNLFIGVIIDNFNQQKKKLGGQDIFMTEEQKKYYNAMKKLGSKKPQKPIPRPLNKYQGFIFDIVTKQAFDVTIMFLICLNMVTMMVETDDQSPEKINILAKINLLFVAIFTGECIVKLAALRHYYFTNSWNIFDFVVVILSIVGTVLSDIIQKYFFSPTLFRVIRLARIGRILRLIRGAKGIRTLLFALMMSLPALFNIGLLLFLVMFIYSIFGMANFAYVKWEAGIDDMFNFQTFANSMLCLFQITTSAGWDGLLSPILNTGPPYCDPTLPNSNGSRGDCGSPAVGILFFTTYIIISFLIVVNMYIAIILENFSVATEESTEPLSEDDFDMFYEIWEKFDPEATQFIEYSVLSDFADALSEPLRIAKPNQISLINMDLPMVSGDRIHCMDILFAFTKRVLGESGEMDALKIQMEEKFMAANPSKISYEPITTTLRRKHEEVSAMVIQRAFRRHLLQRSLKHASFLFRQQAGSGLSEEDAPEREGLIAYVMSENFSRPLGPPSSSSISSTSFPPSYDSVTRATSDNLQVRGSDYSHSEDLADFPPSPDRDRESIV
For orientation: Patch clamp records ionic current or voltage across a cell membrane.

Assay [2] deals with T1, wild-type human cardiac sodium channel, hNav1.5. The experiment in a line: Peak INa screening assay (tonic and use-dependent block). The class given is cell-based. The conditions noted are these: compound at 1 μM. As for the experimental part: The late sodium current (Late INa) and peak sodium current (Peak INa) assays are performed on an automated electrophysiology platform, QPatch 16× (Sophion Bioscience, Copenhagen, Denmark), which uses the whole cell patch clamp technique to measure currents through the cell membrane of up to 16 cells at a time. The assay uses an HEK293 (human embryonic kidney) cell line heterologously expressing the wild-type human cardiac sodium channel, hNav1.5, purchased from Millipore (Billerica, Mass.). No beta subunits were coexpressed with the Na channel alpha subunit. Cells are maintained with standard tissue culture procedures and stable channel expression is maintained with 400 μg/mL Geneticin in the culture medium. Cells isolated for use on QPatch are incubated for 5 minutes in Detachin 1×(Genlantis, San Diego, USA) at 37° C. to ensure that 80-90% of the cells are single and not part of a cell cluster. Experiments are carried out at 23-25° C.
For both the Late INa and Peak INa assays, series resistance compensation is set to 100% and series resistance and whole-cell compensation are performed automatically. Currents are digitized at 25 kHz and low-pass filtered at 12 kHz and 10 kHz for the late and peak INa assays, respectively. Currents through open sodium channels are automatically recorded and stored in the Sophion Bioscience Oracle database (Sophion Bioscience, Copenhagen, Denmark). Analysis is performed using QPatch Assay and database software and data are compiled in Excel.
Compound stocks are routinely made by the Gilead Sample Bank in plastic vials to 10 mM in dimethyl sulfoxide (DMSO). In some cases, when compounds are not soluble in DMSO, they are made in 100% ethanol. Stocks are sonicated as necessary. The extracellular solution for screening Late INa is composed of: 140 mM NaCl, 4 mM KCl, 1.8 mM CaCl2, 0.75 mM MgCl2 and 5 mM HEPES with pH adjusted to 7.4 using NaOH. The intracellular solution used to perfuse the inside of the cells for both the Late INa and Peak INa assays contains: 120 mM CsF, 20 mM CsCl, 5 mM EGTA, 5 mM HEPES and pH adjusted to 7.4 with CsOH. Compounds are diluted in extracellular solution to 1 μM in glass vials and then transferred to glass well plates before robotic addition to the cells. The 0 mM Na extracellular solution (0Na-ECF) used at the end of each experiment for the Late INa and Peak INa assays to measure baseline current contains: 140 mM N-methyl-D-glucamine; 4 mM KCl; 1.8 mM CaCl2; 0.75 mM MgCl2; 5 mM HEPES and pH was adjusted to 7.4 with HCl.
Compounds were also evaluated for their effect in several other assays, including their effect on Peak INa. […] Since the peak INa in the cells used herein can be very large, introducing artifacts in the recording, the concentration of Na^+ in the bath can be reduced to 20 mM and a nonpermeant cation added to compensate for the Na^+ that was removed to maintain the osmolarity and ionic strength of the solution (see solution details below).
A low stimulation frequency of 0.1 Hz was used to determine the effect of the test compound when the channel spent most of the time in the resting (closed) state and provides information about Tonic Block (TB). A higher stimulation frequency (3 Hz) was used to measure block of the channel when it spent more time in the activated and inactivated states and provided a measure of Use-Dependent Block (UDB). Use-dependent block refers to the accumulation of block with increased frequency of channel activation.

[3] abbreviates: HEK293, percent block of late INa, compound at 1 μM, 10 μM Tefluthrin, read-out: Late INa 1 μM.
[4] abbreviates: tonic block of peak INa, 0.1 Hz, read-out: Peak TB 1 μM.
The mark [5] stands for this setting: use-dependent block of peak INa, 3 Hz, read-out: Peak UDB 1 μM.

Turning to `O=C1c2cc(Nc3ccc(C(F)(F)F)cc3)ccc2OCCN1Cc1ccccn1` [XIII-6, 4-(pyridin-2-ylmethyl)-7-(4-(trifluoromethyl)phenylamino)-3,4-dihydrobenzo[f][1,4]oxazepin-5(2H)-one], the inhibition at 1 µM in assay [1] (setting [3]) was found to be 60%; in assay [2] (setting [4]) it was 8%; in assay [2] (setting [5]) it was 8%.
With `O=C1c2cc(-c3ccc(C(F)(F)F)cc3)ccc2OCCN1Cc1ccccc1` [II-141, 4-benzyl-7-(4-(trifluoromethyl)phenyl)-3,4-dihydrobenzo[f][1,4]oxazepin-5(2H)-one], the inhibition at 1 µM in assay [1] (setting [3]) was determined as 73%; in assay [2] (setting [4]), 40%; in assay [2] (setting [5]), 40%.
As for `O=C1c2cc(-c3ccc(OC(F)(F)F)cc3)ccc2OCCN1Cn1cc(Cl)cn1` [II-156, 4-((4-chloro-1H-pyrazol-1-yl)methyl)-7-(4-(trifluoromethoxy)phenyl)-3,4-dihydrobenzo[f][1,4]oxazepin-5(2H)-one], the inhibition at 1 µM in assay [1] (HEK293, % Inhibition at 1 uM, read-out: Late INa*) came to 48%; in assay [1] (setting [3]), 48%; in assay [2] (setting [4]), 23%; in assay [2] (setting [5]), 13%.
On to `O=C1c2cc(-c3ccc(CC(F)(F)F)cc3)ccc2OCCN1Cc1ccccn1` [II-151, 4-(pyridin-2-ylmethyl)-7-(4-(2,2,2-trifluoroethyl)phenyl)-3,4-dihydrobenzo[f][1,4]oxazepin-5(2H)-one], for which the inhibition at 1 µM in assay [1] (setting [3]) amounted to 51%; in assay [2] (setting [4]), 13%; in assay [2] (setting [5]), 14%.
The matching figures for `CCn1ccc(CN2CCOc3ccc(-c4ccc(OC(F)(F)F)cc4)cc3C2=O)n1` [II-153, 4-((1-ethyl-1H-pyrazol-3-yl)methyl)-7-(4-(trifluoromethoxy)phenyl)-3,4-dihydrobenzo[f][1,4]oxazepin-5(2H)-one]: 56%, 15% and 13%.
The like results for `O=C1c2cc(-c3ccc(C(F)(F)F)s3)ccc2OCCN1Cc1ccccn1` [VI-31, 4-(pyridin-2-ylmethyl)-7-(5-(trifluoromethyl)thiophen-2-yl)-3,4-dihydrobenzo[f][1,4]oxazepin-5(2H)-one] were, in that order, 61%, 50% and 42%.
The matching figures for `O=C1c2cc(-c3ccc(OC(F)(F)F)cc3)ccc2OCCN1Cc1ccccc1` [II-134, 4-benzyl-7-(4-(trifluoromethoxy)phenyl)-3,4-dihydrobenzo[f][1,4]oxazepin-5(2H)-one]: 69%, 38% and 34%.
On to `Cc1cncc(CN2CCOc3ccc(-c4ccc(OC(F)(F)F)cc4)cc3C2=O)n1` [II-175, 4-((6-methylpyrazin-2-yl)methyl)-7-(4-(trifluoromethoxy)phenyl)-3,4-dihydrobenzo[f][1,4]oxazepin-5(2H)-one], for which the results for the inhibition at 1 µM in assay [1] (setting [3]), in assay [2] (setting [4]) and in assay [2] (setting [5]) were 53%, 21% and 16%, respectively.
The matching figures for `O=C1c2cc(-c3ccc(C(F)(F)F)cc3)cc(F)c2OCCN1Cc1ccccc1` [II-166, 4-benzyl-9-fluoro-7-(4-(trifluoromethyl)phenyl)-3,4-dihydrobenzo[f][1,4]oxazepin-5(2H)-one]: 53%, 20% and 34%.
The like results for `O=C1c2cc(-c3ccc(OC(F)(F)F)cc3)cc(F)c2OCCN1Cc1ccccc1` [II-165, 4-benzyl-9-fluoro-7-(4-(trifluoromethoxy)phenyl)-3,4-dihydrobenzo[f][1,4]oxazepin-5(2H)-one] were, in that order, 56%, 15% and 30%.
The like results for `O=C1c2cc(-c3ccc(OC(F)(F)F)cc3)ccc2OCCN1Cc1cccc(C(F)(F)F)n1` [II-15, 7-(4-(trifluoromethoxy)phenyl)-4-((6-(trifluoromethyl)pyridin-2-yl)methyl)-3,4-dihydrobenzo[f][1,4]oxazepin-5(2H)-one] were, in that order, 48%, 8% and 8%.
On to `COc1cccnc1CN1CCOc2cnc(-c3ccc(OC(F)(F)F)cc3)cc2C1=O` [XII-10, 4-((3-methoxypyridin-2-yl)methyl)-7-(4-(trifluoromethoxy)phenyl)-3,4-dihydropyrido[4,3-f][1,4]oxazepin-5(2H)-one], for which the inhibition at 1 µM is 45% in assay [1] (setting [3]), 13% in assay [2] (setting [4]) and 20% in assay [2] (setting [5]).
The like results for `O=C1c2cc(-c3ccc(OCC4CCC4)cc3)ccc2OCCN1Cc1ncccn1` [II-144, 7-(4-(cyclobutylmethoxy)phenyl)-4-(pyrimidin-2-ylmethyl)-3,4-dihydrobenzo[f][1,4]oxazepin-5(2H)-one] were, in that order, 68%, 34% and 41%.
The matching figures for `O=C1c2cc(-c3ccc(Cl)c(F)c3)ccc2OCCN1Cc1ccccn1` [II-158, 7-(4-chloro-3-fluorophenyl)-4-(pyridin-2-ylmethyl)-3,4-dihydrobenzo[f][1,4]oxazepin-5(2H)-one]: 58%, 34% and 26%.
The matching figures for `O=C1c2cc(-c3ccc(OC(F)(F)F)cc3)ccc2OCCN1Cc1ccccc1Cl` [II-47, 4-(2-chlorobenzyl)-7-(4-(trifluoromethoxy)phenyl)-3,4-dihydrobenzo[f][1,4]oxazepin-5(2H)-one]: 60%, 13% and 45%.
On to `O=C1c2cc(-c3ccc(OC(F)(F)F)cc3)ccc2OCCN1CCc1ccccn1` [II-54, 4-(2-(pyridin-2-yl)ethyl)-7-(4-(trifluoromethoxy)phenyl)-3,4-dihydrobenzo[f][1,4]oxazepin-5(2H)-one], for which the inhibition at 1 µM in assay [1] (setting [3]) was 51%; in assay [2] (setting [4]), 13%; in assay [2] (setting [5]) it was 20%.
Consider `O=C1c2cc(-c3ccc(OC(F)(F)F)cc3)ccc2OCCN1CCn1cccn1` [II-50, 4-(2-(1H-pyrazol-1-yl)ethyl)-7-(4-(trifluoromethoxy)phenyl)-3,4-dihydrobenzo[f][1,4]oxazepin-5(2H)-one], for which the inhibition at 1 µM is 48% in assay [1] (setting [3]), 5% in assay [2] (setting [4]) and 19% in assay [2] (setting [5]).
For `COc1ccnc(CN2CCOc3ccc(-c4ccc(OC(F)(F)F)cc4)cc3C2=O)n1` [II-137, 4-((4-methoxypyrimidin-2-yl)methyl)-7-(4-(trifluoromethoxy)phenyl)-3,4-dihydrobenzo[f][1,4]oxazepin-5(2H)-one], the results for the inhibition at 1 µM in assay [1] (setting [3]), in assay [2] (setting [4]) and in assay [2] (setting [5]) were 54%, 28% and 26%, respectively.
The like results for `O=C1c2cc(-c3ccc(OC(F)(F)F)cc3)ccc2OCCN1Cc1ccc(F)cc1` [II-62, 4-(4-fluorobenzyl)-7-(4-(trifluoromethoxy)phenyl)-3,4-dihydrobenzo[f][1,4]oxazepin-5(2H)-one] were, in that order, 49%, 10% and 14%.
For the compound `O=C1c2cc(-c3ccc(OCC(F)(F)F)cc3)ccc2OCCN1Cc1ncccn1` [II-107, 4-(pyrimidin-2-ylmethyl)-7-(4-(2,2,2-trifluoroethoxy)phenyl)-3,4-dihydrobenzo[f][1,4]oxazepin-5(2H)-one], the inhibition at 1 µM in assay [1] (setting [3]) came to 18%.

(Values after patent US9676760B2, “Fused heterocyclic compounds as ion channel modulators” (Gilead Sciences, Inc., priority 2011, dated 2017).)
